# Experimental data as given in patent US12239686B2, “Immune checkpoint inhibitor combinations” (LYTIX BIOPHARMA AS, priority 2014, dated 2025).
# Non-standard residues stand in square brackets, D forms with d. Residues, ends and D or L forms follow the SMILES beside them. Dip = N[C@H](C(=O)O)C(c1ccccc1)c1ccccc1
# Experiments:
# [1] = test system: murine A20 B cell lymphoma cells; test: Re-challenge with A20 cells in mice with complete tumour regression; format: in vivo
# Procedure: Methods: Female Balb-c mice (n=4), previously treated with LTX-315, 1 mg) or (n=9); previously treated with LTX-315 0.5 or 1 mg) were re-inoculated (s.c. in the abdominal area) with either murine A20 B cell lymphoma cells or CT26WT colon carcinoma cells (5 million) respectively 6 weeks following initial treatment with LTX-315. Tumour growth was monitored for up to 36 days following re-inoculation.
# A375 cells [2] = test: TEM electron microscopy, ultrastructural changes; format: cell-based, human
# Procedure: A375 cells were seeded at 1×10^5 cells per well in 6-well plates and allowed to grow for three days to optimize membrane structures in the culture, and the media was changed on the second day. Cells were washed twice in serum-free RPMI before being treated with LTX-315 dissolved in serum-free RPMI at 5, 10 and 25 μg/ml, with serum-free RPMI as a negative control. Cells were then washed with PBS twice before fixation for 24 hours in 4° C. with 4% formaldehyde and 1% gluteralaldehyde in a Hepes buffer at pH 7.8. Dehydration and post-fixation protocols included incubation in a 5% buffered tannic acid and incubation in a 1% osmium-reduced ferrocyanide. Ultrathin sections were prepared, and uranyl acetate (5%) and Reynolds's lead citrate were used for staining and contrasting. Samples were examined on a JEOL JEM-1010 transmission electron microscope, and images were taken with an Olympus Morada side-mounted TEM CCD camera (Olympus soft imaging solutions, GmbH, Germany).
# A375 cells [3] = test: Release of ATP, luciferase assay of supernatant; format: cell-based, human; details: concentration-dependent
# Procedure: The supernatant of LTX-315-treated A375 cells was analyzed using an Enliten ATP luciferase assay kit (Promega, USA). Cells were then seeded as with an ROS assay, and treated with LTX-315 in different incubation times, from 1 to 15 minutes with two parallels, which was then conducted three times. Negative controls were untreated A375 cells exposed to serum-free media alone. Samples were diluted at 1:50 and 1:100, and analyzed with a Luminoscan RT luminometer according to the manufacturer's protocol.
# A375 cells [4] = test: Release of HMGB1, Western blot of lysate and supernatant; format: cell-based, human; details: 35 μM, 5-60 min
# Procedure: A375 cells were seeded with 3×10^5 cells/well in 6-well plates in a complete media, and allowed to adhere overnight. Cells were treated with LTX-315 or LTX-328 at 35 μM, and incubated at 37° C. and 5% CO2 for different time points (5, 10, 15, 30, 60 min), and negative controls were serum-free RPMI-1650. Supernatants (S) were collected and centrifuged at 1,400 g for five minutes, and cell lysates (L) were harvested after washing with PBS twice and then subsequently lysed using a 4× Sample buffer (Invitrogen, number), 0.1 M DTT (Sigma number) and water. Supernatants were concentrated using Amicon Ultra 50K centrifugal filters (Millipore UFC505024), and the cell lysate was sonicated. Both supernatants and lysate were boiled and resolved in a 10% sodium dodecyl sulfate polyacrylamide gel electrophoresis (SDS-PAGE), and then electro transferred to a polyvindiline difluoride (PVDF) membrane (Millipore). The membrane was blocked in 5% milk and incubated with the HMGB1 antibody (rabbit, polyclonal, abcam ab 18256); the membrane was then rinsed several times with TBST, incubated with a horseradish peroxidase (HRP)-conjugated secondary antibody (abcam ab6721), rinsed again with TBST and then developed using WB Luminol Reagent (Santa Cruz Biotechnology, Heidelberg, Germany).
# [5] = test system: EMT-6 murine mammary carcinoma; test: EMT-6 mammary carcinoma model, two-flank tumours; format: in vivo, mice
# Procedure: The anti-PD-L1 antibody had the following characteristics: ref: BE0101, Bioxcell; clone 10F.9G2; reactivity: mouse; isotype: Rat IgG2b. LTX-315 was prepared at a dose of 0.5 mg/50 μL in 0.9% sodium chloride solution. Anti-PD-L1 antibody was prepared at a concentration in phosphate-buffered saline and was administered at a dose of 10 mg/kg. LTX-315 was injected into the tumour grafted on the right flank of the mice, anti-PD-L1 antibody was injected into the peritoneal cavity of the mice.
# Induction of MET-6 tumours in mice: A first tumor was induced by subcutaneous injection of 1×10^6 of EMT-6 cells in 200 μL of RPMI 1640 into the right flank of Balb/C female mice. The day of tumor cell injection in the right flank was considered as DO. A second tumor was induced by subcutaneous injection of 1×10^5 of EMT-6 cells in 200 μL of RPMI 1640 into the left flank of Balb/C female mice. The day of tumor cell injection in the left flank was considered as D3.
# Treatment schedule: Mice were randomized according to their body weight on D3 into four groups each of 5 mice (group 1) or 10 mice (groups 3, 5 and 7) using Vivo Manager® software (Biosystemes, Couternon, France). A statistical test (analysis of variance) was performed to test for homogeneity between groups. […]
# Mouse monitoring: All study data, including mouse body weight measurements, tumour volume, clinical and mortality records, and treatment were scheduled and recorded on Vivo Manager® database (Biosystemes, Dijon, France). The viability and behaviour was recorded every day. Body weights were measured thrice a week. The length and width of the tumor was measured three times a week with calipers and the volume of the tumour was estimated by the following formula: tumour volume=(width2×length)/2 (SIMPSON-HERREN L. et al. Cancer Chemotherapy Rep., 54: 143, 1970).
# A375 melanoma cells = test: Live cell imaging, bright field confocal microscopy; format: cell-based, human; details: at an IC-50 value, majority of the cells
# Procedure: Live cell imaging with unlabeled cells-A375 cells were seeded at 10,000 cells/well in a complete media in Nunc Lab-Tec 8-wells chambered covered glass (Sigma) precoated with 25 μg/ml human fibronectin (Sigma) that were allowed to adhere overnight. Cells were washed twice with a serum-free RPMI, treated with peptide dissolved in RPMI and investigated using Bright on a Leica TCS SP5 confocal microscope, with a 63X/1.2W objective. The microscope was equipped with an incubation chamber with CO2 and temperature control.
smiles,measurement,setting,value
"NCCCC[C@H](NC(=O)[C@@H](NC(=O)[C@H](Cc1c[nH]c2ccccc12)NC(=O)[C@H](CCCCN)NC(=O)[C@H](CCCCN)NC(=O)[C@H](Cc1c[nH]c2ccccc12)NC(=O)[C@H](Cc1c[nH]c2ccccc12)NC(=O)[C@H](CCCCN)NC(=O)[C@@H](N)CCCCN)C(c1ccccc1)c1ccccc1)C(N)=O [LTX-315, K-K-W-W-K-K-W-Dip-K-NH2] (H-KKWWKKW[Dip]K-NH2)",tumour growth after re-inoculation compared with control animals,"[1]; 4 mice previously treated with LTX-315 1 mg, re-inoculated 6 weeks later, P<0.006",Significant inhibition
same,mice with complete tumour regression after re-inoculation,[1]; of 4 re-inoculated mice,3 mice
same,animals with relapse after re-inoculation,"[1]; of 4 re-inoculated mice, 3 weeks later",1 animal
same,cells with vacuolization,A375 cells [2]; 3.5 μM,approximately 20%
same,number of necrotic cells,"A375 cells [2]; 3.5 μM, 60 minutes",less than 5%
same,cells displaying vacuolization,"A375 cells [2]; 17 μM, 60 min",4%
same,cells with necrotic morphology with loss of plasma membrane integrity,"A375 cells [2]; 17 μM, 60 min",approximately 40%
same,extracellular ATP release,A375 cells [3],ATP was detected in the supernatant as early as after 5 minutes of treatment
same,HMGB1 translocation from cell lysate to supernatant,A375 cells [4],gradual translocation from the cell lysate to the supernatant detected
same,test mice surviving for more than 50 days after tumour induction,"[5]; LTX-315 0.5 mg i.t. Q1Dx3, anti-PD-L1 10 mg/kg IP Q2Dx6",30%
same,"Proportion of Mice with total tumour regression, Right flank","[5]; treated flank, day 52 or when sacrificed",30%
same,"Proportion of Mice with total tumour regression, Left flank","[5]; untreated flank, day 52 or when sacrificed",10%
same,time to cell collapse with extrusion of cytoplasmic content,A375 melanoma cells,15 to 60 min
